In patent publication US9113629B2, “4-amino-6-(4-substituted-phenyl)-picolinates and 6-amino-2-(4-substituted-phenyl)-pyrimidine-4-carboxylates and their use as herbicides” (DOW AGROSCIENCES LLC, priority 2013, dated 2015):
Read-outs that look alike come from different tables or passages of the source.

Experiments:
[1] = system: Key Broadleaf Weed and Crop Species; assay: Post-emergent Test II herbicidal activity (Table 5); type: in vivo; settings: post-emergence, 336 h, post-emergent, 14 days after application; for pest or weed control at 70 g/ha: 70 g ai/ha; for pest or weed control at 140 g/ha: 140 g ai/ha
In short: (§1)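 Percent injury, 0 (none) to 100 (complete kill), was judged visually 14 d after spraying young plants at the first or second true leaf stage with compound in an acetone/DMSO aqueous carrier at 187 L/ha. Plants were kept in a greenhouse at 23–29 °C by day.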

[2] = system: Key Grass and Sedge Weeds as well as Grass Crops; assay: Post-emergent Test II herbicidal activity (Table 6); type: in vivo; settings: post-emergence, 336 h; for pest or weed control at 70 g/ha: application rate 70 g ai/ha; for pest or weed control at 140 g/ha: application rate 140 g ai/ha
In short: as §1

[3] = ABUTH: velvetleaf (Abutilon theophrasti), read-out: Visual Growth Reduction (%) 14 Days After Application ABUTH
[4] = AMARE: redroot pigweed (Amaranthus retroflexus), read-out: Visual Growth Reduction (%) 14 Days After Application AMARE
[5] = BRSNN: oilseed-rape, canola (Brassica napus), read-out: Visual Growth Reduction (%) 14 Days After Application BRSNN
[6] = CHEAL: lambsquarters (Chenopodium album), read-out: Visual Growth Reduction (%) 14 Days After Application CHEAL
[7] = EPHHL: wild poinsettia (Euphorbia heterophylla), read-out: Visual Growth Reduction (%) 14 Days After Application EPHHL
[8] = HELAN: sunflower (Helianthus annuus), read-out: Visual Growth Reduction (%) 14 Days After Application HELAN
[9] = VIOTR: wild pansy (Viola tricolor), read-out: Visual Growth Reduction (%) 14 Days After Application VIOTR
[10] = Triticum aestivum, TRZSS (wheat), read-out: Visual Growth Reduction (%) 14 Days After Application, TRZSS
[11] = CYPES: yellow nutsedge (Cyperus esculentus), read-out: Visual Growth Reduction (%) 14 Days After Application, CYPES
[12] = DIGSA: crabgrass (Digitaria sanguinalis), read-out: Visual Growth Reduction (%) 14 Days After Application, DIGSA
[13] = ECHCG: barnyardgrass (Echinochloa crus-galli), read-out: Visual Growth Reduction (%) 14 Days After Application, ECHCG
[14] = ORYSA: rice (Oryza sativa), read-out: Visual Growth Reduction (%) 14 Days After Application, ORYSA
[15] = SETFA: giant foxtail (Setaria faberi), read-out: Visual Growth Reduction (%) 14 Days After Application, SETFA
[16] = SORVU: grain sorghum (Sorghum vulgare), read-out: Visual Growth Reduction (%) 14 Days After Application, SORVU
[17] = ZEAMX: maize, corn (Zea mays), read-out: Visual Growth Reduction (%) 14 Days After Application, ZEAMX

SMILES: COC(=O)c1nc(-c2ccc(OC(F)F)cc2)c(C)c(N)c1Cl [Compound 111, Methyl 4-amino-3-chloro-6-(4-(difluoromethoxy)phenyl)-5-methylpicolinate]
- pest or weed control at 70 g/ha [1, 3]: 30 to 44%
- pest or weed control at 140 g/ha [1, 3]: 60 to 74%
- pest or weed control at 70 g/ha [1, 4]: 0 to 29%
- pest or weed control at 140 g/ha [1, 4]: 0 to 29%
- pest or weed control at 70 g/ha [1, 5]: 0 to 29%
- pest or weed control at 140 g/ha [1, 5]: 0 to 29%
- pest or weed control at 70 g/ha [1, 6]: 30 to 44%
- pest or weed control at 140 g/ha [1, 6]: 60 to 74%
- pest or weed control at 70 g/ha [1, 7]: 0 to 29%
- pest or weed control at 140 g/ha [1, 7]: 0 to 29%
- pest or weed control at 70 g/ha [1, 8]: 75 to 84%
- pest or weed control at 140 g/ha [1, 8]: 85 to 94%
- pest or weed control at 70 g/ha [1, 9]: 0 to 29%
- pest or weed control at 140 g/ha [1, 9]: 0 to 29%
- pest or weed control at 70 g/ha [2, 10]: 0 to 29%
- pest or weed control at 140 g/ha [2, 10]: 0 to 29%
- pest or weed control at 70 g/ha [2, 11]: 0 to 29%
- pest or weed control at 140 g/ha [2, 11]: 0 to 29%
- pest or weed control at 70 g/ha [2, 12]: 0 to 29%
- pest or weed control at 140 g/ha [2, 12]: 0 to 29%
- pest or weed control at 70 g/ha [2, 13]: 0 to 29%
- pest or weed control at 140 g/ha [2, 13]: 0 to 29%
- pest or weed control at 70 g/ha [2, 14]: 0 to 29%
- pest or weed control at 140 g/ha [2, 14]: 0 to 29%
- pest or weed control at 70 g/ha [2, 15]: 0 to 29%
- pest or weed control at 140 g/ha [2, 15]: 0 to 29%
- pest or weed control at 70 g/ha [2, 16]: 0 to 29%
- pest or weed control at 140 g/ha [2, 16]: 0 to 29%
- pest or weed control at 70 g/ha [2, 17]: 0 to 29%
- pest or weed control at 140 g/ha [2, 17]: 0 to 29%
